From patent US10294202B2, “Pyrrolidinones as herbicides” (FMC Corporation, priority 2013, dated 2019)

Columns and labels:
foxtail, green = assay: Test D pre-/postemergence herbicide test; format: in vivo, Setaria viridis; conditions: for Plant response rating, Foxtail, Green: scale 0 to 100 (0 no effect, 100 complete control); for Plant response rating: Foxtail, Green, scale 0 to 100
How it was run: (§1)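 Compound applied in non-phytotoxic solvent with surfactant, either preemergence (silt loam soil) or postemergence (peat moss/vermiculite medium, 2–18 cm plants). Evaluated visually after 7 to 21 days; 0 = no effect, 100 = complete control.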

deadnettle = assay: Test D pre-/postemergence herbicide test; format: in vivo, Lamium amplexicaule; conditions: for Plant response rating, Deadnettle: scale 0 to 100 (0 no effect, 100 complete control); for Plant response rating: Deadnettle, scale 0 to 100
How it was run: as §1

oilseed rape = assay: Test D pre-/postemergence herbicide test; format: in vivo, Brassica napus; conditions: for Plant response rating, Oilseed Rape: Preemergence, scale 0 to 100 (0 no effect, 100 complete control); for Plant response rating: Postemergence, Oilseed Rape, scale 0 to 100
How it was run: as §1

pigweed = assay: Test D pre-/postemergence herbicide test; format: in vivo, Amaranthus retroflexus; conditions: for Plant response rating, Pigweed: Preemergence, scale 0 to 100 (0 no effect, 100 complete control); for Plant response rating: Postemergence, Pigweed, scale 0 to 100
How it was run: as §1

speedwell = assay: Test D pre-/postemergence herbicide test; format: in vivo, Veronica persica; conditions: for Plant response rating, Speedwell: Preemergence, scale 0 to 100 (0 no effect, 100 complete control); for Plant response rating: Postemergence, Speedwell, scale 0 to 100
How it was run: as §1

barley, spring = assay: Test D pre-/postemergence herbicide test; format: in vivo, Hordeum vulgare; conditions: for Plant response rating, Barley, Spring: scale 0 to 100 (0 no effect, 100 complete control); for Plant response rating: Barley, Spring, scale 0 to 100
How it was run: as §1

barley, winter = assay: Test D pre-/postemergence herbicide test; format: in vivo, Hordeum vulgare; conditions: for Plant response rating, Barley, Winter: scale 0 to 100 (0 no effect, 100 complete control); for Plant response rating: Barley, Winter, scale 0 to 100
How it was run: as §1

crabgrass, Brazil = assay: Test E preemergence herbicide test; format: in vivo, Digitaria horizontalis; parameters: key: 0 = no effect, 100 = complete control
Text: (§2) Seeds of plant species selected from corn (Zea mays), soybean (Glycine max), velvetleaf (Abutilon theophrasti), lambsquarters (Chenopodium album), wild poinsettia (Euphorbia heterophylla), pigweed, palmer (palmer pigweed, Amaranthus palmeri), waterhemp (common waterhemp, Amaranthus rudis), surinam grass (Brachiaria decumbens), crabgrass, large (large crabgrass, Digitaria sanguinalis), crabgrass, Brazil (Brazilian crabgrass, Digitaria horizontalis), panicum, fall (fall panicum, Panicum dichotomiflorum), foxtail, giant (giant foxtail, Setaria faberii), foxtail, green (green foxtail, Setaria viridis), goosegrass (Eleusine indica), johnsongrass (Sorghum halepense), ragweed (common ragweed, Ambrosia elatior), barnyardgrass (Echinochloa crus-galli), sandbur (southern sandbur, Cenchrus echinatus), arrowleaf […] rhombifolia), ryegrass, Italian (Italian ryegrass, Lolium multiflorum), dayflower, VA (Virginia dayflower, Commelina virginica), field bindweed (Convolvulus arvensis), morningglory (Ipomoea coccinea), nightshade (eastern black nightshade, Solanum ptycanthum), kochia (Kochia scoparia), nutsedge, yellow (yellow nutsedge, Cyperus esculentus), cocklebur (common cocklebur, Xanthium strumarium), smartweed (ladysthumb smartweed, Polygonum Persicaria) and beggarticks (hairy beggarticks, Bidens pilosa), were planted into a silt loam soil and treated preemergence with test chemicals formulated in a non-phytotoxic solvent mixture which included a surfactant. Treated plants and controls were maintained in a greenhouse for 21 days, after which time all species were compared to controls and visually evaluated. Plant response ratings, summarized in Table E, are based on a scale of 0 to 100 where 0 is no effect and 100 is complete control. A dash (-) response means no test result.

beggarticks = assay: Test E preemergence herbicide test; format: in vivo, Bidens pilosa; parameters: key: 0 = no effect, 100 = complete control
Text: as §2

O=C1NC[C@H](c2cccc(C(F)(F)F)c2)[C@H]1C(=O)Nc1ccccc1F [Compound 204, (3R,4S)—N-(2-fluorophenyl)-2-oxo-4-[3-(trifluoromethyl)phenyl]-3-pyrrolidinecarboxamide]
Plant response rating, Foxtail, Green (foxtail, green; Preemergence, 62 g ai/ha): 98 | Plant response rating, Foxtail, Green (foxtail, green; Preemergence, 125 g ai/ha): 98 | Plant response rating, Foxtail, Green (foxtail, green; Preemergence, 31 g ai/ha): 90 | Plant response rating (foxtail, green; Preemergence, 250 g ai/ha): 100 | Plant response rating, Deadnettle (deadnettle; Preemergence, 62 g ai/ha): 25 | Plant response rating, Deadnettle (deadnettle; Preemergence, 125 g ai/ha): 25 | Plant response rating, Deadnettle (deadnettle; Preemergence, 31 g ai/ha): 25 | Plant response rating (deadnettle; Preemergence, 250 g ai/ha): 35 | Plant response rating, Oilseed Rape (oilseed rape; 62 g ai/ha): 0 | Plant response rating, Oilseed Rape (oilseed rape; 125 g ai/ha): 0 | Plant response rating, Oilseed Rape (oilseed rape; 31 g ai/ha): 0 | Plant response rating, Oilseed Rape (oilseed rape; 250 g ai/ha): 0 | Plant response rating, Pigweed (pigweed; 62 g ai/ha): 5 | Plant response rating, Pigweed (pigweed; 125 g ai/ha): 35 | Plant response rating, Pigweed (pigweed; 31 g ai/ha): 0 | Plant response rating, Pigweed (pigweed; 250 g ai/ha): 35 | Plant response rating, Speedwell (speedwell; 62 g ai/ha): 10 | Plant response rating, Speedwell (speedwell; 125 g ai/ha): 10 | Plant response rating, Speedwell (speedwell; 31 g ai/ha): 0 | Plant response rating, Speedwell (speedwell; 250 g ai/ha): 70 | Plant response rating, Barley, Spring (barley, spring; Preemergence, 62 g ai/ha): 15 | Plant response rating, Barley, Spring (barley, spring; Preemergence, 125 g ai/ha): 20 | Plant response rating, Barley, Spring (barley, spring; Preemergence, 31 g ai/ha): 0 | Plant response rating (barley, spring; Preemergence, 250 g ai/ha): 45 | Plant response rating, Barley, Winter (barley, winter; Preemergence, 62 g ai/ha): 20 | Plant response rating, Barley, Winter (barley, winter; Preemergence, 125 g ai/ha): 25 | Plant response rating, Barley, Winter (barley, winter; Preemergence, 31 g ai/ha): 0 | Plant response rating (barley, winter; Preemergence, 250 g ai/ha): 35 | Plant response rating, Crabgrass, Brazil (crabgrass, Brazil; 31 g ai/ha): 95 | Plant response rating, Crabgrass, Brazil (crabgrass, Brazil; 62 g ai/ha): 95 | Plant response rating, Crabgrass, Brazil (crabgrass, Brazil; 125 g ai/ha): 98 | Plant response rating, Crabgrass, Brazil (crabgrass, Brazil; 250 g ai/ha): 98 | Plant response rating, Beggarticks (beggarticks; 31 g ai/ha): 0 | Plant response rating, Beggarticks (beggarticks; 62 g ai/ha): 0 | Plant response rating, Beggarticks (beggarticks; 125 g ai/ha): 0 | Plant response rating, Beggarticks (beggarticks; 250 g ai/ha): 0

O=C1NCC(c2ccc(C(F)(F)F)cc2)C1C(=O)Nc1cccc(F)c1F (racemic) [Compound 202]
Plant response rating (foxtail, green; Postemergence, 31 g ai/ha): 60 | Plant response rating (foxtail, green; Postemergence, 62 g ai/ha): 65 | Plant response rating (foxtail, green; Postemergence, 125 g ai/ha): 70 | Plant response rating (foxtail, green; Postemergence, 250 g ai/ha): 70 | Plant response rating, Foxtail, Green (foxtail, green; Preemergence, 62 g ai/ha): 90 | Plant response rating, Foxtail, Green (foxtail, green; Preemergence, 31 g ai/ha): 90 | Plant response rating (foxtail, green; Preemergence, 125 g ai/ha): 98 | Plant response rating (foxtail, green; Preemergence, 250 g ai/ha): 95 | Plant response rating (deadnettle; Postemergence, 31 g ai/ha): 5 | Plant response rating (deadnettle; Postemergence, 62 g ai/ha): 35 | Plant response rating (deadnettle; Postemergence, 125 g ai/ha): 60 | Plant response rating (deadnettle; Postemergence, 250 g ai/ha): 70 | Plant response rating, Deadnettle (deadnettle; Preemergence, 62 g ai/ha): 65 | Plant response rating, Deadnettle (deadnettle; Preemergence, 31 g ai/ha): 40 | Plant response rating (deadnettle; Preemergence, 125 g ai/ha): 80 | Plant response rating (deadnettle; Preemergence, 250 g ai/ha): 85 | Plant response rating (oilseed rape; 31 g ai/ha): 60 | Plant response rating (oilseed rape; 62 g ai/ha): 70 | Plant response rating (oilseed rape; 125 g ai/ha): 60 | Plant response rating (oilseed rape; 250 g ai/ha): 55 | Plant response rating, Oilseed Rape (oilseed rape; 62 g ai/ha): 35 | Plant response rating, Oilseed Rape (oilseed rape; 125 g ai/ha): 45 | Plant response rating, Oilseed Rape (oilseed rape; 31 g ai/ha): 0 | Plant response rating, Oilseed Rape (oilseed rape; 250 g ai/ha): 75 | Plant response rating (pigweed; 31 g ai/ha): 75 | Plant response rating (pigweed; 62 g ai/ha): 75 | Plant response rating (pigweed; 125 g ai/ha): 75 | Plant response rating (pigweed; 250 g ai/ha): 80 | Plant response rating, Pigweed (pigweed; 62 g ai/ha): 80 | Plant response rating, Pigweed (pigweed; 125 g ai/ha): 90 | Plant response rating, Pigweed (pigweed; 31 g ai/ha): 75 | Plant response rating, Pigweed (pigweed; 250 g ai/ha): 90 | Plant response rating (speedwell; 31 g ai/ha): 60 | Plant response rating (speedwell; 62 g ai/ha): 75 | Plant response rating (speedwell; 125 g ai/ha): 85 | Plant response rating (speedwell; 250 g ai/ha): 90 | Plant response rating, Speedwell (speedwell; 62 g ai/ha): 90 | Plant response rating, Speedwell (speedwell; 125 g ai/ha): 90 | Plant response rating, Speedwell (speedwell; 31 g ai/ha): 90 | Plant response rating, Speedwell (speedwell; 250 g ai/ha): 100 | Plant response rating (barley, spring; Postemergence, 31 g ai/ha): 0 | Plant response rating (barley, spring; Postemergence, 62 g ai/ha): 0 | Plant response rating (barley, spring; Postemergence, 125 g ai/ha): 0 | Plant response rating (barley, spring; Postemergence, 250 g ai/ha): 5 | Plant response rating, Barley, Spring (barley, spring; Preemergence, 62 g ai/ha): 25 | Plant response rating, Barley, Spring (barley, spring; Preemergence, 31 g ai/ha): 0 | Plant response rating (barley, spring; Preemergence, 125 g ai/ha): 25 | Plant response rating (barley, spring; Preemergence, 250 g ai/ha): 30 | Plant response rating (barley, winter; Postemergence, 31 g ai/ha): 0 | Plant response rating (barley, winter; Postemergence, 62 g ai/ha): 0 | Plant response rating (barley, winter; Postemergence, 125 g ai/ha): 0 | Plant response rating (barley, winter; Postemergence, 250 g ai/ha): 0 | Plant response rating, Barley, Winter (barley, winter; Preemergence, 62 g ai/ha): 20 | Plant response rating, Barley, Winter (barley, winter; Preemergence, 31 g ai/ha): 20 | Plant response rating (barley, winter; Preemergence, 125 g ai/ha): 20 | Plant response rating (barley, winter; Preemergence, 250 g ai/ha): 25 | Plant response rating, Crabgrass, Brazil (crabgrass, Brazil; 31 g ai/ha): 80 | Plant response rating, Crabgrass, Brazil (crabgrass, Brazil; 62 g ai/ha): 98 | Plant response rating, Crabgrass, Brazil (crabgrass, Brazil; 125 g ai/ha): 98 | Plant response rating, Crabgrass, Brazil (crabgrass, Brazil; 250 g ai/ha): 98 | Plant response rating, Beggarticks (beggarticks; 31 g ai/ha): 0 | Plant response rating, Beggarticks (beggarticks; 62 g ai/ha): 0 | Plant response rating, Beggarticks (beggarticks; 125 g ai/ha): 35 | Plant response rating, Beggarticks (beggarticks; 250 g ai/ha): 80

O=C1NC[C@H](c2cccc(C(F)(F)F)c2)[C@H]1C(=O)Nc1cccc(F)c1F [Compound 206]
Plant response rating, Foxtail, Green (foxtail, green; Preemergence, 62 g ai/ha): 95 | Plant response rating, Foxtail, Green (foxtail, green; Preemergence, 125 g ai/ha): 98 | Plant response rating, Foxtail, Green (foxtail, green; Preemergence, 31 g ai/ha): 85 | Plant response rating (foxtail, green; Preemergence, 250 g ai/ha): 98 | Plant response rating, Deadnettle (deadnettle; Preemergence, 62 g ai/ha): 35 | Plant response rating, Deadnettle (deadnettle; Preemergence, 125 g ai/ha): 40 | Plant response rating, Deadnettle (deadnettle; Preemergence, 31 g ai/ha): 20 | Plant response rating (deadnettle; Preemergence, 250 g ai/ha): 75 | Plant response rating, Oilseed Rape (oilseed rape; 62 g ai/ha): 0 | Plant response rating, Oilseed Rape (oilseed rape; 125 g ai/ha): 0 | Plant response rating, Oilseed Rape (oilseed rape; 31 g ai/ha): 0 | Plant response rating, Oilseed Rape (oilseed rape; 250 g ai/ha): 5 | Plant response rating, Pigweed (pigweed; 62 g ai/ha): 20 | Plant response rating, Pigweed (pigweed; 125 g ai/ha): 40 | Plant response rating, Pigweed (pigweed; 31 g ai/ha): 5 | Plant response rating, Pigweed (pigweed; 250 g ai/ha): 50 | Plant response rating, Speedwell (speedwell; 62 g ai/ha): 25 | Plant response rating, Speedwell (speedwell; 125 g ai/ha): 65 | Plant response rating, Speedwell (speedwell; 31 g ai/ha): 0 | Plant response rating, Speedwell (speedwell; 250 g ai/ha): 90 | Plant response rating, Barley, Spring (barley, spring; Preemergence, 62 g ai/ha): 35 | Plant response rating, Barley, Spring (barley, spring; Preemergence, 125 g ai/ha): 40 | Plant response rating, Barley, Spring (barley, spring; Preemergence, 31 g ai/ha): 5 | Plant response rating (barley, spring; Preemergence, 250 g ai/ha): 55 | Plant response rating, Barley, Winter (barley, winter; Preemergence, 62 g ai/ha): 30 | Plant response rating, Barley, Winter (barley, winter; Preemergence, 125 g ai/ha): 40 | Plant response rating, Barley, Winter (barley, winter; Preemergence, 31 g ai/ha): 15 | Plant response rating (barley, winter; Preemergence, 250 g ai/ha): 65 | Plant response rating, Crabgrass, Brazil (crabgrass, Brazil; 31 g ai/ha): 80 | Plant response rating, Crabgrass, Brazil (crabgrass, Brazil; 62 g ai/ha): 98 | Plant response rating, Crabgrass, Brazil (crabgrass, Brazil; 125 g ai/ha): 98 | Plant response rating, Crabgrass, Brazil (crabgrass, Brazil; 250 g ai/ha): 98 | Plant response rating, Beggarticks (beggarticks; 31 g ai/ha): 0 | Plant response rating, Beggarticks (beggarticks; 62 g ai/ha): 0 | Plant response rating, Beggarticks (beggarticks; 125 g ai/ha): 0 | Plant response rating, Beggarticks (beggarticks; 250 g ai/ha): 0
